Measurements as given in US6864275B1, “Compounds and methods for use thereof in the treatment of cancer” (UAF Technologies and Research, LLC, priority 1997, dated 2005).

How the values were obtained:
Tubulin = experiment: Microtubule inhibition assay (tubulin polymerization, absorbance at 350 nm); assay type: biochemical, bovine; settings: compound at 2 μM, after 30 minutes
Experimental: The benzimidazole derivatives of this invention were evaluated for their ability to inhibit formation of microtubules, following the procedure of Luduena, R. F. and M. C. […] Microtubule polymerization was followed by performing the reaction in a cuvette and monitoring UV absorbance at 350 nm, allowing direct visualization of the time course of the polymerization.

B16 murine melanoma = experiment: MTT cell growth inhibition, B16 melanoma cells; assay type: cell-based; settings: 3-6 days incubation
Experimental: (§1) The following cell culture tests were performed to test the toxicity of benzimidazole derivative compounds of the present invention on colon and melanoma tumor cells. The viability of the cells were tested by looking at MTT (3-[4,5-dimethylthiazol-2-yl]-2,5-diphenyltetrazolium bromide) reduction. MTT assay is a well known measure of cell viability.
(§2) The colon tumor cells (HT29) and the melanoma cells (B16 murine melanoma) were seeded (1000-2000 cells) into each well of a 96-well microtiter plate and allowed to grow. Twenty-four hours later, increasing concentrations of each benzimidazole derivative were added to the plates and the cells were allowed to incubate for 3-6 days in the presence of the drugs. MTT reagent was then added to the wells and allowed to incubate for 4 hours at 37° C., after which the formazan metabolite was solubilized with acidic isopropanol and the absorbance was read. Experimental controls included blank wells to which no cells were added (zero point of formazan absorbance) and control wells to which no drug was added (highest level of formazan absorbance). Each drug concentration was tested in duplicate and the resulting average absorbance was plotted against drug concentration using the EZ-ED50 computer program on a personal computer interfaced to the microtiter plate reader. […] The IC50 value is then derived from this equation by EZ-ED50.

colon tumor cells (HT29) = experiment: MTT cell growth inhibition, HT29 colon tumor cells; assay type: cell-based; settings: 3-6 days incubation, read-out: IC50 Human Colon Carcinoma
Experimental: as §1, §2

Row | SMILES | Tubulin Polymerization Inhibition, % Inhibition (Tubulin) | IC50 (B16 murine melanoma) [µM] | IC50 (colon tumor cells (HT29)) [µM]
1 | COC(=O)Nc1nc2ccc(C(=O)OCC(F)(F)C(F)(F)F)cc2[nH]1 [3-14] | 23% | 588 | 314
2 | COC(=O)Nc1nc2ccc(C(=O)NCC3CCCO3)cc2[nH]1 (centres unmarked) [2-4] | 36% | 47.2 | 35.7
3 | COC(=O)Nc1nc2ccc(C(=O)OCCC(C)CCC=C(C)C)cc2[nH]1 (centres unmarked) [3-21] | 2% | 0.077 | 0.046
4 | COC(=O)Nc1nc2ccc(C(=O)OCC=CCO)cc2[nH]1 [3-10] | none | 1 | 0.6
5 | COC(=O)Nc1nc2ccc(C(=O)OCCCCl)cc2[nH]1 [3-9] | none | 0.21 | 0.054
6 | CCN(CC)CCCNC(=O)c1ccc2nc(NC(=O)OC)[nH]c2c1 [Cpd. No. 2-1] | 24% | 530 | 398
7 | CCC(C)NC(=O)c1ccc2nc(NC(=O)OC)[nH]c2c1 (centres unmarked) [2-3] | 26% | 2.9 | 1.6
8 | CCOCCOCCOC(=O)c1ccc2nc(NC(=O)OC)[nH]c2c1 [Cpd. No. 3-4] | 12% | 0.084 | 0.027
9 | COC(=O)Nc1nc2ccc(C(=O)OCCCCCO)cc2[nH]1 [3-11] | 50% | 248 | 107
10 | COC(=O)Nc1nc2ccc(NC(=O)CC(C)CC(C)(C)C)cc2[nH]1 (centres unmarked) [Cpd. No. 5-1] | none | 6.6 | 7
11 | COC(=O)Nc1nc2ccc(C(=O)N(C)C3CCCCC3)cc2[nH]1 [Cpd. No. 2-16] | 39% | 0.32 | 0.23
12 | COC(=O)Nc1nc2ccc(C(=O)NCCN(C)C)cc2[nH]1 [Cpd. No. 2-14] | none | 403 | 158
13 | COC(=O)Nc1nc2ccc(C(=O)OCCN(C)C)cc2[nH]1 [Cpd. No. 3-8] | none | 70.4 | 48.6
14 | COC(=O)Nc1nc2ccc(OC(=O)c3cc(OC)c(OC)c(OC)c3)cc2[nH]1 [Cpd. No. 4-1] | 2% | 0.25 | 0.17
15 | COCCNC(=O)c1ccc2nc(NC(=O)OC)[nH]c2c1 [2-11] | 19% | 30.5 | 17.1
16 | CCC(C)CNC(=O)c1ccc2nc(NC(=O)OC)[nH]c2c1 (centres unmarked) [2-8] | none | 5 | 4.9
17 | COC(=O)Nc1nc2ccc(C(=O)OCCOCCCl)cc2[nH]1 [3-2] | 14% | 0.082 | 0.036
18 | COC(=O)Nc1nc2ccc(C(=O)NCCCN(C)C)cc2[nH]1 [2-10] | 5% | 553 | 447
19 | CCCN(CCC)C(=O)c1ccc2nc(NC(=O)OC)[nH]c2c1 [2-18] | 42% | 9.4 | 3.1
20 | COC(=O)Nc1nc2ccc(C(=O)NCCN3CCOCC3)cc2[nH]1 [2-2] | 11% | 80.5 | 121

Row | SMILES | Tubulin Polymerization Inhibition, % Inhibition (Tubulin) | IC50 (B16 murine melanoma) [µM] | IC50 (colon tumor cells (HT29)) [µM]
21 | COC(=O)Nc1nc2ccc(C(=O)OCCC(C)CC(C)(C)C)cc2[nH]1 (centres unmarked) [3-20] | 35% | < 0.001 | 0.013
22 | COC(=O)Nc1nc2c(OC(=O)CC(C)CC(C)(C)C)cccc2[nH]1 (centres unmarked) [Cpd. No. 1-1] | 38% | 20.1 | 15.8
23 | COC(=O)Nc1nc2ccc(C(=O)OC(CF)CF)cc2[nH]1 [3-15] | 45% | 0.94 | 0.61
24 | C=CCOC(=O)c1ccc2nc(NC(=O)OC)[nH]c2c1 [3-3] | 42% | 0.22 | 0.059
25 | COC(=O)Nc1nc2ccc(C(=O)NNc3ccccc3)cc2[nH]1 [Cpd. No. 2-12] | 50% | 271 | 25.4
26 | COC(=O)Nc1nc2ccc(C(=O)NCCC(C)C)cc2[nH]1 [2-5] | 37% | 5.9 | 5.1
27 | CCC(CC)NC(=O)c1ccc2nc(NC(=O)OC)[nH]c2c1 [2-9] | 16% | 0.37 | 228
28 | COC(=O)Nc1nc2c(OC(=O)c3cc(OC)c(OC)c(OC)c3)cccc2[nH]1 [Cpd. No. 1-2] | 35% | 14 | 26.3
29 | COC(=O)Nc1nc2ccc(C(=O)OCCF)cc2[nH]1 [3-17] | 8% | 0.97 | 0.3
30 | COC(=O)Nc1nc2ccc(C(=O)OCCOCCO)cc2[nH]1 [Cpd. No. 3-5] | 10% | 2.6 | 
31 | COC(=O)Nc1nc2ccc(C(=O)OC(CBr)CBr)cc2[nH]1 [3-18] | none | 1.2 | 2.1
32 | COC(=O)Nc1nc2ccc(C(=O)OCc3ccccc3)cc2[nH]1 [3-7] | 26% | 0.085 | 0.033
33 | COC(=O)Nc1nc2ccc(C(=O)NC(C)CC(C)C)cc2[nH]1 (centres unmarked) [Cpd. No. 2-6] | 12% | 0.84 | 0.5
34 | COC(=O)Nc1nc2ccc(C(=O)Nc3cc(OC)c(OC)c(OC)c3)cc2[nH]1 [2-15] | 5% | 6.1 | 4.2
35 | CCCCN(C)C(=O)c1ccc2nc(NC(=O)OC)[nH]c2c1 [2-17] | none | 4.6 | 2.5
36 | COC(=O)Nc1nc2ccc(C(=O)OC(C)C3CC3)cc2[nH]1 (centres unmarked) [3-16] | 44% | 0.062 | 0.03
37 | COC(=O)Nc1nc2ccc(C(=O)OC(CCl)CCl)cc2[nH]1 [Cpd. No. 3-12] | 11% | 0.99 | 2.1
38 | COC(=O)Nc1nc2ccc(C(=O)Nc3ccccc3O)cc2[nH]1 [2-13] | 27% | 2.8 | 2.3
39 | COC(=O)Nc1nc2ccc(C(=O)NCCC(C)(C)C)cc2[nH]1 [2-7] | 43% | 0.41 | 0.42
